Legend:
HT-29 = assay: Cytotoxic activity, IC50, HT-29; type: cell-based; details: Homo sapiens
DU-145 = assay: Cytotoxic activity, IC50, DU-145; type: cell-based; details: Homo sapiens
A-549 = assay: Cytotoxic activity, IC50, A-549; type: cell-based; details: Homo sapiens, A549
MEL-28 = assay: Cytotoxic activity, IC50, MEL-28; type: cell-based; details: Homo sapiens, SK-MEL-28
P-388 = assay: Cytotoxic activity, IC50, P-388; type: cell-based; details: Mus musculus, P388
RAMOS = details: ramos cells

Structure (SMILES) | IC50 (HT-29) | IC50 (DU-145) | IC50 (A-549) | IC50 (MEL-28) | IC50 (P-388) | IC50 (RAMOS)
COc1c(C)cc2c(c1O)C1C3Cc4c(OC(C)=O)c(C)c5c(c4C(CNC(=O)C(Cc4c[nH]c6ccccc46)NC(=O)OC(C)(C)C)N3C(O)C(C2)N1C)OCO5 (centres unmarked) | 0.012 µM | – | – | – | – | –
COc1c(C)cc2c(c1O)C1C3Cc4c(OC(C)=O)c(C)c5c(c4C(CNC(=O)c4cccnc4Cl)N3C(C#N)C(C2)N1C)OCO5 (centres unmarked) | 0.00015 µM | – | – | – | – | –
COc1c(C)cc2c(c1O)C1C3Cc4c(OC(C)=O)c(C)c5c(c4C(COC(=O)CCc4ccccc4)N3C(C#N)C(C2)N1C)OCO5 (centres unmarked) | 0.0001 µM | 0.0001 µM | – | – | – | –
COc1c(C)cc2c(c1O)[C@@H]1[C@@H]3Cc4c(OC(C)=O)c(C)c5c(c4[C@H](CNC(=O)Cc4ccccc4)N3[C@@H](O)[C@H](C2)N1C)OCO5 | 0.0007 µM | 0.0007 µM | 0.0007 µM | 0.0007 µM | 0.0007 µM | –
COc1c(C)cc2c(c1O)[C@@H]1[C@@H]3Cc4c(OC(C)=O)c(C)c5c(c4[C@H](CNC(=O)CCc4ccccc4)N3[C@@H](O)[C@H](C2)N1C)OCO5 | 0.0001 µM | 0.0001 µM | – | – | – | –
COc1c(C)cc2c(c1OC(=O)CCC1CCCCC1)C1C3Cc4c(OC(C)=O)c(C)c5c(c4C(CNC(=O)CCC4CCCCC4)N3C(C#N)C(C2)N1C)OCO5 (centres unmarked) | 0.12 µM | – | – | – | – | –
COc1c(C)cc2c(c1O)[C@@H]1[C@@H]3Cc4c(OC(C)=O)c(C)c5c(c4[C@H](COC(=O)CCc4ccccc4)N3[C@@H](O)[C@H](C2)N1C)OCO5 | – | – | – | – | – | 1.86 nM
COc1c(C)cc2c(c1O)C1C3Cc4c(OC(C)=O)c(C)c5c(c4C(CNC(=O)CC4CCCCC4)N3C(C#N)C(C2)N1C)OCO5 (centres unmarked) | 0.0015 µM | – | – | – | – | –
C/C=C/C(=O)NC[C@H]1c2c(c(OC(C)=O)c(C)c3c2OCO3)C[C@H]2[C@H]3c4c(cc(C)c(OC)c4O)C[C@@H]([C@H](C#N)N12)N3C | 0.0001 µM | 0.0008 µM | 0.0008 µM | – | – | –
COc1c(C)cc2c(c1O)C1C3Cc4c(OC(C)=O)c(C)c5c(c4C(COC(=O)CCc4ccccc4)N3C(O)C(C2)N1C)OCO5 (centres unmarked) | 0.0001 µM | 0.0001 µM | – | – | – | –
COc1c(C)cc2c(c1O)C1C3Cc4c(OC(C)=O)c(C)c5c(c4C(CNC(=O)CCC4CCCCC4)N3C(C#N)C(C2)N1C)OCO5 (centres unmarked) | 0.0015 µM | – | – | – | – | –
COc1c(C)cc2c(c1O)C1C3Cc4c(OC(C)=O)c(C)c5c(c4C(CNC(=O)C(CCCNC(=N)N)NC(=O)OC(C)(C)C)N3C(C#N)C(C2)N1C)OCO5 (centres unmarked) | > 1 µM | – | > 1 µM | – | – | –
COc1c(C)cc2c(c1O)C1C3Cc4c(OC(C)=O)c(C)c5c(c4C(CNC(=O)c4cccnc4Cl)N3C(O)C(C2)N1C)OCO5 (centres unmarked) | 0.00015 µM | – | – | – | – | –
CCCC(=O)OCC1c2c(c(OC(C)=O)c(C)c3c2OCO3)CC2C3c4c(cc(C)c(OC)c4O)CC(C(O)N12)N3C (centres unmarked) | 0.0001 µM | 0.0001 µM | – | – | – | –
COc1c(C)cc2c(c1O)C1C3Cc4c(OC(C)=O)c(C)c5c(c4C(COC(=O)C=Cc4cccc(C(F)(F)F)c4)N3C(O)C(C2)N1C)OCO5 (centres unmarked) | 0.0001 µM | 0.0001 µM | – | – | – | –
COc1c(C)cc2c(c1O)C1C3Cc4c(OC(C)=O)c(C)c5c(c4C(COC(=O)C=Cc4ccccc4)N3C(O)C(C2)N1C)OCO5 (centres unmarked) | 0.0007 µM | 0.0007 µM | 0.0007 µM | 0.0007 µM | – | –
COCOc1c(OC)c(C)cc2c1C1C3Cc4c(OC(C)=O)c(C)c5c(c4C(COC(=O)C=Cc4ccccc4)N3C(C#N)C(C2)N1C)OCO5 (centres unmarked) | 0.07 µM | 0.07 µM | 0.07 µM | 0.07 µM | – | –
COc1c(C)cc2c(c1O)C1C3Cc4c(OC(C)=O)c(C)c5c(c4C(COC(=O)C=Cc4ccccc4)N3C(C#N)C(C2)N1C)OCO5 (centres unmarked) | 0.0007 µM | 0.0007 µM | 0.0007 µM | 0.0007 µM | 0.0007 µM | –
CCCC(=O)OCC1c2c(c(OC(C)=O)c(C)c3c2OCO3)CC2C3c4c(cc(C)c(OC)c4O)CC(C(C#N)N12)N3C (centres unmarked) | 0.0008 µM | 0.0008 µM | 0.0008 µM | – | – | –
COc1c(C)cc2c(c1OC(=O)CC1CCCCC1)C1C3Cc4c(OC(C)=O)c(C)c5c(c4C(CNC(=O)CC4CCCCC4)N3C(C#N)C(C2)N1C)OCO5 (centres unmarked) | 0.013 µM | – | – | – | – | –
